Counter-ions that a name gives are not always drawn.
The compounds below were run against T1, human D4 receptor (D4.2 sub-type) (Homo sapiens, UniProt P21917, DEL265-296) (assay: D4 receptor binding assay (3H-spiperone displacement)). Details: 1 μM test compound, inhibition of 3H-spiperone binding; read-out: D4 RBA % Inhib. @ 1 μM.
T1 construct: expressed in transfected cells
T1 sequence (P21917 with tags, fused parts or gaps DEL265-296): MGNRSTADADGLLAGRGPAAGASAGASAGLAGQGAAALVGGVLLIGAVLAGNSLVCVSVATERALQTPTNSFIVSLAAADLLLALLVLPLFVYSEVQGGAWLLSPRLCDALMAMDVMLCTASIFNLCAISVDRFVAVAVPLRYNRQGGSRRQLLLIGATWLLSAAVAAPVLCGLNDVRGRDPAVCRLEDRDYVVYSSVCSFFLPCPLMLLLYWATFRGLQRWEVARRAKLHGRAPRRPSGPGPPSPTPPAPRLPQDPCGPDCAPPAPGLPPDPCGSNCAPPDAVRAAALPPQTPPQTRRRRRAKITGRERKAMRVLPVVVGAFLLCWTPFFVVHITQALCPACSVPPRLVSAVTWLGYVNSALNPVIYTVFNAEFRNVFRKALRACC
Experimental: D4 receptor-binding affinities of the compounds were evaluated according to their ability to reduce binding of ^3H-spiperone as compared to the reference compound clozapine. The potency of the test compound to reduce ^3H-spiperone binding directly correlated to its binding affinity for the receptor.
[…] (human embryonic kidney) cells stably transfected with human D4 receptor (D4.2 sub-type) were grown in NUNC cell factories for 5 days (75% confluency) without a media change and removed with versene (approximately 19 mg of cells per cell factory tray). The cells were then centrifuged in a Sorval centrifuge for 10 min, 5000 rpm (GS3 rotor) and the pellets quickly frozen in liquid nitrogen and stored at −80° C. until used in binding assay. When used in the assay, cells were thawed on ice for 20 min and then 10 mL of incubation buffer (50 mM Tris, 1 mM EDTA, 4 mM MgCl2, 5 mM KCl, 1.5 mM CaCl2, 120 mM NaCl, pH 7.4) was added. The cells were then vortexed to resuspend pellet and homogenized with a Kinematica, CH-6010 Kriens-LU, homogenizer for 15 seconds at setting 7. Concentration of receptor protein was determined using the Pierce BCA assay.
The incubation was started by the addition of 100 μl (50 μg protein) membrane homogenate to a solution of 300 μl incubation buffer and 100 μl (0.25 nM final conc.) ^3H-spiperone (90 Ci/mmol, Amersham, diluted in borosilicate glass vial) in 96-well polypropylene plates (1 mL per well). The plates were vortexed and incubated at room temperature for 90 minutes. The binding reaction was stopped by filtering using a Packard Harvester. The samples were filtered under vacuum over glass fibre filter plates (Whatman GF/B) presoaked for 2 hours in 0.3% polyethylenimine (PEI) in 50 mM Tris buffer (pH 7.4). The filters were then washed 6 times with 7 mL ice cold 50 mM Tris buffer (pH 7.4). The filter plates were dried overnight and 35 μl of Microscint-O (Packard) was added. The plates were sealed and counted in the Packard Top Count (3 minutes per well).
The incubation was started by the addition of 100 μl (50 μg protein) membrane homogenate to a solution of 200 μl incubation buffer, 100 μl ^3H-spiperone (90 Ci/mmol, Amersham, diluted in borosilicate glass vial to 0.25 nM final conc.) and 100 μl (30 μM final conc.) of fresh dopamine (Research Biochemicals Inc., light protected and dissolved in incubation buffer) in 96-well polypropylene plates (1 mL per well). The plates were vortexed and incubated at room temperature for 90 minutes at which time the binding reaction was stopped by filtering. The filters were washed and counted using the same procedure as in the total binding assay described above to give the nonspecific binding value (NSB).
The incubation was started by the addition, in 96-well polypropylene plates (1 mL per well), of 100 μl (50 μg protein) membrane homogenate to a solution of 200 μl incubation buffer, 100 μl (0.25 nM final conc.) ^3H-spiperone (90 Ci/mmol, Amersham, diluted in borosilicate glass vial) and 100 μl of test compound that was prepared from 1 mM stock dissolved in DMSO and stored at −20° C. in polypropylene cryogenic storage vials until dilution in incubation buffer in 96-well polypropylene plates. The plates were vortexed and incubated at room temperature for 90 minutes at which time the binding reaction was stopped by filtering. The filters were washed and counted using the same procedure as in the total binding assay described above to give the displacement binding value (BD).
The test compounds were initially assayed at 1 and 0.1 μM and then at a range of concentrations chosen such that the middle dose would cause about 50% inhibition of ^3H-spiperone binding. Specific binding in the absence of test compound (B0) was the difference of total binding (BT) minus non-specific binding (NSB) and similarly specific binding (in the presence of test compound) (B) was the difference of displacement binding (BD) minus non-specific binding (NSB). […]

| SMILES | inhibition at 1 µM |
| --- | --- |
| OC(COc1cccc(-c2noc3ccsc23)c1)CN1CCc2ccccc2C1 (racemic) [Compound 1, (±)-1-(3,4-dihydro-1H-isoquinolin-2-yl)-3-[3-(thieno[2,3-d]isoxazol-3-yl)phenoxy]-2-propanol hydrochloride] | 58% |
| O[C@@H](COc1cccc(-c2noc3ccsc23)c1)CN1CCN(Cc2ccc3c(c2)OCO3)CC1 [Example 35] | 57% |
| O[C@H](CNCc1ccsc1)COc1ccc(-c2noc3ccsc23)cc1 [Example 41] | 62% |
| O[C@H](CNCc1ccco1)COc1ccc(-c2noc3ccsc23)cc1 [Example 42] | 44% |
| C[C@@H](NC[C@](C)(O)COc1cccc(-c2noc3ccsc23)c1)c1ccccc1 [Example 55] | 72% |
| C[C@H](NC[C@](C)(O)COc1cccc(-c2noc3ccsc23)c1)c1ccccc1 [Example 56] | 93% |
| C[C@](O)(CNCc1cccc2ccccc12)COc1cccc(-c2noc3ccsc23)c1 [Example 57] | 96% |

Same assay, conditions: 3H-spiperone 0.25 nM, membranes of HEK 298 cells with human D4.2; Cheng-Prusoff from IC50; read-out: D4 RBA Ki

| SMILES | Ki |
| --- | --- |
| CN(Cc1ccccc1)C[C@@H](O)COc1cccc(-c2noc3ccsc23)c1 [Compound 2] | 106 nM |
| C[C@@](O)(CNCc1cccs1)COc1cccc(-c2noc3ccsc23)c1 [Compound 5 (freebase)] | 26 nM |
| C[C@@](O)(CNCc1cccs1)COc1cccc(-c2noc3ccsc23)c1 [Compound 5 (maleate), (2R)-2-methyl-1-(3-thieno[2,3-d]isoxazol-3-yl-phenoxy)-3-[thienophen-2-ylmethyl)-amino-propan-2-ol maleate] | 59.2 nM |
| O[C@@H](COc1cccc(-c2noc3ccsc23)c1)CN1CCN(c2ccc(Cl)cc2)CC1 [Compound 7, (2R)-1-[4-(4-chlorophenyl)piperazin-1-yl]-3-(3-thieno[2,3-d]isoxazol-3-yl-phenoxy)propan-2-ol hydrochloride] | 29.6 nM |
| COc1ccccc1N1CCN(C[C@@H](O)COc2cccc(-c3noc4ccsc34)c2)CC1 [Compound 8] | 1.7 nM |
| O[C@H](CNC1Cc2ccccc2C1)COc1cccc(-c2noc3ccsc23)c1 [Compound 91 (HCl), (2R)-1-(indan-2-ylamino)-3-(3-thieno[2,3-d]isoxazol-3-yl-phenoxy)-propan-2-ol] | 17 nM |
| O[C@H](CNC1Cc2ccccc2C1)COc1cccc(-c2noc3ccsc23)c1 [Compound 91 (base), (2R)-1-(indan-2-ylamino)-3-(3-thieno[2,3-d]isoxazol-3-yl-phenoxy)-propan-2-ol] | 13 nM |
| O[C@H](CNCc1cccc2ccccc12)COc1cccc(-c2noc3ccsc23)c1 [Example 10] | 103 nM |
| C[C@@](O)(CNCc1ccco1)COc1cccc(-c2noc3ccsc23)c1 [Example 17] | 45 nM |
| C[C@@](O)(CNCc1cccc2ccccc12)COc1cccc(-c2noc3ccsc23)c1 [Example 21] | 55 nM |
| O[C@H](CNCc1ccco1)COc1cccc(-c2noc3ccsc23)c1 [Example 25] | 57 nM |
| O[C@@H](COc1cccc(-c2noc3ccsc23)c1)CN1CCN(c2ccccc2C(F)(F)F)CC1 [Example 36] | 84 nM |
| CO[C@H](CNCc1ccccc1)COc1cccc(-c2noc3ccsc23)c1 [Example 39] | 26 nM |
| O[C@H](CNCc1cccs1)COc1ccc(-c2noc3ccsc23)cc1 [Example 43] | 171 nM |
| COc1ccccc1N1CCN(C[C@@H](O)COc2ccc(-c3noc4ccsc34)cc2)CC1 [Example 45] | 80 nM |
| CN(Cc1ccccc1)C[C@](C)(O)COc1cccc(-c2noc3ccsc23)c1 [Example 66] | 90 nM |
| COc1ccccc1N1CCN(C[C@](C)(O)COc2cccc(-c3noc4ccsc34)c2)CC1 [Example 67] | 19 nM |
| C[C@@](O)(COc1cccc(-c2noc3ccsc23)c1)CN1CCN(c2ccccc2C#N)CC1 [Example 68] | 29 nM |
| O[C@@H](COc1cccc(-c2noc3ccsc23)c1)CN1C2CCC1CC(c1noc3ccccc13)C2 (some centres unmarked) [Example 75] | 57 nM |

From patent US7125903B1 (Aventis Pharmaceuticals Inc., priority 1999, dated 2006)
